Results from patent US8022043B2, “Ceramide derivatives as modulators of immunity and autoimmunity” (Albert Einstein College of Medicine of Yeshiva University, priority 2004, dated 2011).

How the values were obtained:
[1] = tested on: human NKT cell clones; test: Human in vitro NKT cell assay system; assay type: cell-based; settings: proliferative responses and cytokine secretion
From the text: For example, DB03-4 and DB03-5 are active in stimulation of human NKT cell clones in vitro, and elicits proliferative responses and cytokine secretion when evaluated using culture systems previously established in the literature (See, e.g., Spada F M, Sugita M, Watts G F M, Koezuka Y, and Porcelli S A. Low expression but potent antigen presenting function of CD1d on monocyte lineage cells, Eur. J. Immunol., 30:3468-3477 (2000), and Spada F M, Koezuka Y, Porcelli S A, CD1d-restricted recognition of synthetic glycolipid antigens by human NK T cells. J Exp Med; 188:1529-1534 (1998), see also, Lee P T et al., J Clin Invest., 2002 September; 110(6):793-800. […] Acad. Sci. (USA), 102:3383-8 (2005)).

[2] = tested on: NK T cells; test: NK T cell activation screens (Example, FIG. 5 and Table 1); assay type: cell-based; settings: see Example
From the text: Using these methods, we produced more than 60 novel amino substituted analogues of KRN7000. These were screened in a functional assay that assessed the ability of the compounds to activate NK T cell hybridomas in the presence of various types of cells expressing CD1d, or in the presence of recombinant CD1d proteins bound to the tissue culture plate surface (FIG. 5).

[3] = tested on: T cell antigen receptors of human NKT cells; test: Glycolipid human CD1d tetramer binding; settings: normal blood specimens
[4] = tested on: iNKT cells; test: In vitro cytokine modulation, murine cell assay system; assay type: cell-based
[5] = tested on: NOD mice; test: Prevention of type 1 diabetes in NOD mice; assay type: in vivo; settings: i.p. once per week, 200 micrograms/kg; comparator DB01-1 (indicated as KRN7000)
Description: Cohorts of 6-8 female NOD mice were treated with placebo (vehicle) or DB01-1 (indicated as KRN7000), DB03-4 or DB03-5 injections once weekly beginning at 4-5 weeks of age. Treatment was discontinued after 5 injections (DB03-4) or 7 injections (DB03-5). Top graphs show incidence of glycosuria, and bottom graphs show survival in each cohort.
Given the widely held belief that selective augmentation of IL-4 production can be protective or therapeutic in the setting of many autoimmune diseases, we have initiated studies to examine the efficacy of compounds such as DB03-4 and DB03-5 in diabetes prone NOD mice. […] The results reported in FIG. 10 were obtained by treating three groups, each consisting of 9-12 female NOD mice, starting from age 5 weeks with a ceramide-like glycolipid. The indicated ceramide-like glycolipids (DB03-4, DB03-5, or KRN7000) were injected i.p. once per week in a dose of 200 micrograms/kg. Treatment was discontinued at 11 weeks of age, and the mice were monitored weekly for glucosuria (top) and death (bottom).
For experiments involving in vivo treatment of mice with the ceramide-like glycolipids, the ceramide-like glycolipids were administered by i.p. or i.v. injection in 0.2 ml PBS+0.025% Tween-20, or in vehicle alone. A typical dose is about 4-5 nmoles per animal per injection. […]

[6] = tested on: C57BL/6 mice; test: Serum IL-4 and IFNγ after a single i.p. injection; assay type: in vivo
Description: Serum levels of L-4 and IFNγ after a single injection of DB01-1, DB03-4, or DB03-5 are shown. C57BL/6 mice (11-13 weeks old) were given a single i.p. injection of 4.8 nanomoles of the compounds or phosphate buffered saline (PBS)/vehicle control. Serum cytokine levels were measured 2 and 20 hours later by capture ELISA. Bars show means of three mice, with standard deviation. Note that DB01-1 has nearly identical structure to KRN7000 (C24 fatty acid as compared to C26) and has activity that is indistinguishable from KRN7000 in multiple bioassays. We use DB01-1 as a “KRN7000 mimic” because it has been synthesized by our group and is readily available for our studies, and KRN7000 was unavailable due to license restrictions.
A most intriguing property of KRN7000 analogues is that in some cases they may elicit immune responses that are qualitatively different from those that occur following stimulation with the parent compound. […] This selective activation of IL-4 production by NK T cells was proposed to be the basis for the enhanced therapeutic effects of OCH in the EAE model of central nervous system autoimmune disease. We have observed a similar in vivo effect on the nature of the NK T cell response using several of our ceramide-like glycolipids. […] These responses are similar to those seen for DB01-1, an analogue that is structurally almost identical to KRN7000 (C24 fatty acid instead of C26, otherwise identical) and indistinguishable in terms of its activity in our hands. […] This selective IL-4 induction is virtually identical to that reported for the OCH analogue, and thus illustrates the potential for amino substituted analogues of KRN7000 to induce qualitatively different immunomodulatory effects in vivo. The results reported in FIG. 9 were obtained by measuring serum levels of IL-4 and IFNγ after administering a single injection of […], DB03-4, or DB03-5 to C57BL/6 mice. C57BL/6 mice (11-13 weeks old) were given a single i.p. injection of 4.8 nanomoles of the ceramide-like glycolipids or PBS/vehicle control. Serum cytokine levels were measured 2 and 20 hours later by capture ELISA. Bars show means of three mice, with standard deviation.
For experiments involving in vivo treatment of mice with the ceramide-like glycolipids, the ceramide-like glycolipids were administered by i.p. or i.v. injection in 0.2 ml PBS+0.025% Tween-20, or in vehicle alone. A typical dose is about 4-5 nmoles per animal per injection. Representative references for administering an α-galactosyl ceramide to mice by i.p., i.v. or p.o. routes are S. Sharif et al., Activation of natural killer T cells by alpha-galactosylceramide treatment prevents the onset and recurrence of autoimmune Type 1 diabetes, Nat. Med., Sep. 7, 2001, (9):1057-62 and K. Miyamoto et al., A synthetic glycolipid prevents autoimmune encephalomyelitis by inducing TH2 bias of natural killer T cells, Nature. Oct. 4, 2001, 413(6855):5314.

## CCCCC/C=C\C/C=C\CCCCCCCCCC(=O)N[C@@H](COC1OC(CO)C(O)C(O)C1O)[C@H](O)[C@H](O)CCCCCCCCCCCCCC (stereo partly shown) [DB03-4]
[1]
  stimulation of human NKT cell clones: active
[2]
  effectiveness of compound: Particularly effective
[3]
  binding of glycolipid human CD1d tetramers to human NKT cells: bind strongly
[4]
  cytokine bias: bias towards inducing Type 2 cytokines
[4]; in vitro
  IL-4 induction: strong inducers of IL-4
[4]; in vitro, DB03-3: in some murine strains
  IFNγ induction: blunted IFNγ
[4]; murine cell assay system
  in vitro activity at modulating cytokines: show in vitro activity
[5]
  prevention of diabetes in NOD mice compared with KRN7000: superior to KRN7000
[6]; 20 hours after single i.p. injection of 4.8 nanomoles
  serum IFNγ response: not seen
[6]; two hours after single i.p. injection of 4.8 nanomoles
  serum IL-4 response: strong IL-4 response
